Data as given in PubChem BioAssay (NCI).
Where “and” joins values, the source holds several entries; their conditions need not be identical. Identical values can stand only once.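 Five compound concentrations were applied to cells in 96-well plates for 48 hours; endpoints were derived by simple linear interpolation of the resulting dose-response curve. Abbreviation: GI50, concentration required for 50% inhibition of growth. Definition used: TGI = concentration required for complete inhibition of growth.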

Assays:
Assay in all cases: growth of human tumour cells (NCI), 48 h
[1] = tested on: 786-0 renal
[2] = tested on: COLO 205 colon
[3] = tested on: HCT-15 colon
[4] = tested on: LXFL 529 NSCLC
[5] = tested on: MALME-3M melanoma
[6] = tested on: RPMI-8226 leukemia
[7] = tested on: SF-268 CNS
[8] = tested on: SK-MEL-5 melanoma
[9] = tested on: SN12C renal
[10] = tested on: XF 498 CNS

| Compound | TGI [1] | TGI [2] | TGI [3] | TGI [4] | TGI [5] | TGI [6] | TGI [7] | TGI [8] | TGI [9] | TGI [10] [µM] | GI50 [1] | GI50 [2] | GI50 [3] | GI50 [4] [µM] | GI50 [5] [µM] | GI50 [6] [µM] | GI50 [7] | GI50 [8] [µM] | GI50 [9] |
| --- | --- | --- | --- | --- | --- | --- | --- | --- | --- | --- | --- | --- | --- | --- | --- | --- | --- | --- | --- |
| O=C(NC12CC3CC(CC(C3)C1)C2)C(=O)c1c[nH]c2ccc([N+](=O)[O-])cc12 | 45.9 µM | > 100 µM | > 100 µM | > 100 µM | > 94.5 µM | > 100 µM | 43.4 µM | > 100 µM | > 100 µM | 60.6 |  |  |  |  |  |  |  |  |  |
| N#Cc1ccc(Nc2cnc3ccc(N)cc3n2)cc1 | > 100 µM | > 100 µM | > 100 µM | > 100 µM | > 100 µM | > 100 µM | > 100 µM | > 100 µM | > 100 µM | > 100 |  |  |  |  |  |  |  |  |  |
| CCOC(=O)NC1=C(N2CC2)C(=O)C(NC(=O)OCC)=C(N2CC2)C1=O | 25 µM and 18.4 µM and 33.2 µM | 25 µM and 33 µM and 51.1 µM | 25 µM and 42.9 µM and 44.2 µM | 15 µM and 9.51 µM | 18 µM and 18.3 µM and 15.6 µM | 19 µM and 20.2 µM and 10.6 µM | 25 µM and 20.7 µM and 26.9 µM | 15 µM and 9.97 µM and 7.95 µM | 25 µM and 14.2 µM and 7.15 µM | 8.75 | 4.02 µM and 1.78 µM | 15.1 µM and 8.56 µM | 11.4 µM and 10.2 µM | 4.34 | 5.79 | 9.3 | 5.55 µM and 4.88 µM | 4.7 | 3.3 µM and 3.06 µM |
| CC(C)(O)[C@@H]1CC[C@@]2(C)CCC[C@H](O)[C@H]2C1 | > 100 µM | > 100 µM | > 100 µM | > 100 µM | > 100 µM | > 100 µM | > 100 µM | > 100 µM | > 100 µM | > 100 |  |  |  |  |  |  |  |  |  |
| Cc1ccc(C(=O)N2CCN(C(=O)c3ccc(C)cc3)c3ccccc32)cc1 | 43.2 µM | 32.2 µM | > 100 µM | > 100 µM | > 100 µM | > 58.2 µM | > 100 µM | 43.5 µM | > 100 µM | 70 |  |  |  |  |  |  |  |  |  |
| COC(=O)[C@@]1(O)CC(C)C=C1C=O (some centres undefined) | > 100 µM | > 100 µM | 33.1 µM | > 100 µM | > 100 µM | > 100 µM | > 100 µM | > 100 µM | > 100 µM | > 100 |  |  |  |  |  |  |  |  |  |
| COc1cc([C@H]2c3cc4c(cc3[C@H](NCc3ccc([N+](=O)[O-])cc3)C3COC(=O)[C@H]32)OCO4)cc(OC)c1O (some centres undefined) | 2.78 µM | > 43.9 µM | 6.44 µM | > 76 µM | 17.3 µM | > 25.6 µM | > 25.9 µM | 6.61 µM | 4.68 µM | 20.4 |  |  |  |  |  |  |  |  |  |
| COC1=C2C[C@H](O)C(C)C[C@@]2(OC)OC1=O (some centres undefined) | > 100 µM | > 100 µM | > 100 µM | > 100 µM | > 100 µM | > 100 µM | > 100 µM | > 100 µM | > 100 µM | > 100 |  |  |  |  |  |  |  |  |  |
